These results are taken from patent publication US12251449B2, “Synthetic multidomain peptide biomaterials that inhibit inducible nitric oxide synthase” (William Marsh Rice University, priority 2019, dated 2025).

Entries after “also recorded” stand apart in the source; their conditions may differ. *1 amine or outer side, *2 acyl side, *3 side chain or, on linkers, in order; H or OH if unused. Where a SMILES comes first, the peptide text is derived from it. [ ]: non-standard residue; d: D form. X1 = CC(=N)NCCCC[C@H](N[*:1])C(=O)[*:2]

The test system of the assay is iNOS. Kind of assay: Anti-nitrotyrosine immunostaining of subcutaneously injected hydrogels. The format is in vivo, mice. As to conditions: subcutaneous implants, 3 and 7 days post injection. On the procedure:
Subcutaneous experiments and histology. C57BL/6J female mice were purchased from The Jackson Laboratory at age 8-12 weeks for subcutaneous characterization experiments. Mice were housed under specific pathogen-free conditions in standard temperature and lighting conditions with free access to food and water, and experiments were conducted with approval of the Institutional Animal Care and Use Committee (IACUC) at Rice University and according to NIH guidelines. Mice were injected with 100 μL MDP hydrogels in each of four separate sites in the subcutaneous space of the dorsal flank after the skin was shaved and sterilized with alcohol. At days 3, 7, 14, and 21 the mice were euthanized and the dorsal skin around the entire implant was removed, fixed overnight in 10% neutral buffered formalin, processed and paraffin embedded, and finally sectioned at […] thickness for staining using standard Masson's trichrome or hematoxylin and eosin (H&E) procedures, as well as immunohistochemical analyses (e.g., anti-nitrotyrosine IHC, or α-SMA blood vessel analysis).
Immunohistochemistry staining was performed on hydrogel implant tissue sections to further study in vivo properties of the L-NIL-MDP compared to related cationic MDPs. Anti-nitrotyrosine immunostaining was used to assess relative levels of nitrosylation of tyrosine within and around the subcutaneously injected hydrogel implants as a marker of iNOS inhibition (FIGS. 7A-H). It is known that the formation of nitric oxide (NO) and other nitrogen oxides in vivo can lead to observable post-translation modifications of peptides and proteins (Ischiropoulos, 2003). For example, surface-exposed 3-nitrotyrosine can be used as a marker of cell or tissue inflammation and damage by reactive nitrogen and oxygen species such as NO (Ahsan, 2013). The higher the local levels of iNOS activity, the greater should be the density of nitrosylated tyrosine. Therefore, visualization of nitrotyrosine levels by targeted antibodies can serve as a general indication of in vivo iNOS activity, or in the case of the L-NIL-MDP, local iNOS inhibition.

In the case of `CC(=N)NCCCC[C@H](NC(=O)[C@H](CCCCNC(C)=N)NC(=O)[C@H](CC(C)C)NC(=O)[C@H](CO)NC(=O)[C@H](CC(C)C)NC(=O)[C@H](CO)NC(=O)[C@H](CC(C)C)NC(=O)[C@H](CO)NC(=O)[C@H](CC(C)C)NC(=O)[C@H](CO)NC(=O)[C@H](CC(C)C)NC(=O)[C@H](CO)NC(=O)[C@H](CC(C)C)NC(=O)[C@H](CO)NC(=O)[C@H](CCCCNC(C)=N)NC(=O)[C@H](CCCCNC(C)=N)NC(C)=O)C(N)=O` [L-NIL-MDP] (Ac-[X1][X1]SLSLSLSLSLSL[X1][X1]-NH2), the “nitrotyrosine staining intensity (in words)” value is on record as “significantly lower; also recorded: lowest degree of nitrotyrosine staining”.
